Laboratory results published in patent publication US20130109682A1, “CYCLIC ETHER COMPOUNDS USEFUL AS KINASE INHIBITORS” (NOVARTIS AG, priority 2010, published 2013).

Columns and labels:
PIM1 = PIM1 (Homo sapiens, UniProt P11309); test: KinaseGlo Pim1 ATP depletion assay; type: biochemical
Outline: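 IC50 is derived from residual ATP measured by KinaseGlo Plus luminescence once about half the ATP was consumed. Final conditions were 20 μM ATP, 40 μM BAD peptide and 2.5 nM kinase in HEPES pH 7.5 buffer with MgCl2, DTT and BSA, plus 2.5% DMSO. Compound and enzyme were premixed 15 min before ATP addition.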

PIM2 = PIM2 (Homo sapiens, UniProt Q9P1W9); test: KinaseGlo Pim2 ATP depletion assay; type: biochemical
Chain of PIM2 (Q9P1W9 whole entry): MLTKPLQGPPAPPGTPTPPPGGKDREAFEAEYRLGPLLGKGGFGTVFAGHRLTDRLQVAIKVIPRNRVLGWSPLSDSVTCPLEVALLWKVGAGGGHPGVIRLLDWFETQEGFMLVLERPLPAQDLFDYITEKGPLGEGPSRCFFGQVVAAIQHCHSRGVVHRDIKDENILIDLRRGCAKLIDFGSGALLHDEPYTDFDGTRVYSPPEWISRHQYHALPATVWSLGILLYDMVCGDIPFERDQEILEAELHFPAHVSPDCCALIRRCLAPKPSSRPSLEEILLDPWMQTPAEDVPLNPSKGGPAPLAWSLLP
Outline: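 Compound sat 15 min with enzyme and BAD peptide before ATP was added; final levels 5 nM PIM2, 10 μM peptide, 4 μM ATP, 2.5% DMSO, pH 7.5 HEPES buffer with MgCl2, DTT, BSA. Stopped near 50% ATP consumption; remaining ATP measured by luciferase luminescence.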

PIM3 = PIM3 (Homo sapiens, UniProt Q86V86); test: KinaseGlo Pim3 ATP depletion assay; type: biochemical
Outline: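 Residual ATP was detected by luciferase luminescence once about half had been consumed. The reaction contained 5 nM enzyme, 100 μM BAD peptide (RSRHSSYPAGT) and 40 μM ATP in 50 mM HEPES pH 7.5, 5 mM MgCl2, 1 mM DTT and 0.05% BSA with 2.5% DMSO. Compound and enzyme/peptide were premixed 15 min before ATP.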

GSK3β = GSK3β (Homo sapiens, UniProt P49841); test: GSK3β ATP depletion assay; type: biochemical; conditions: read-out: GSK3b IC50
Chain of GSK3β (P49841 whole entry, species assumed): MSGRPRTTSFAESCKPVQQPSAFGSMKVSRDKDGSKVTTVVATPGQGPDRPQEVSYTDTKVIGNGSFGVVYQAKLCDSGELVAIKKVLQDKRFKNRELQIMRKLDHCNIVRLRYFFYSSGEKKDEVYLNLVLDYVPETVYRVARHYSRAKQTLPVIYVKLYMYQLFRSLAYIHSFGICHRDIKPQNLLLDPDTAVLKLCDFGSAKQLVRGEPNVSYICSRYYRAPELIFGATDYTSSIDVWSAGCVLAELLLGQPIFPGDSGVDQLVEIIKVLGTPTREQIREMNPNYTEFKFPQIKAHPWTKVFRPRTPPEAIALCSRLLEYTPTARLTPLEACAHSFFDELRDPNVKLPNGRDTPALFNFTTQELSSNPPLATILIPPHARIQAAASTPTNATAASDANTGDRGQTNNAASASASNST
Outline: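 Kinase activity is read as ATP consumption: luciferase luminescence reports the ATP remaining once roughly half of the 2 μM ATP is used. Reaction mix: 5 nM GSK3β, 10 μM b-CREB peptide, 50 mM Tris pH 7.5, 15 mM MgCl2, 1 mM DTT, 0.1% BSA, 2.5% DMSO. Enzyme and peptide are preincubated 15 min before ATP is added.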

[1] = system: KMS11 (human myeloma cell line); test: Cell proliferation assay (CellTiter-Glo), KMS11; type: cell-based; conditions: Homo sapiens, KMS-11; KMS11-Luc cells
Outline: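 EC50 derived from CellTiter-Glo luminescence after 3-day exposure at 37° C. Compound was diluted to 2× in medium and added to an equal volume of cells. KMS11 myeloma cells were plated on assay day at 2000/well in IMDM with 10% FBS and sodium pyruvate.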

hERG = target: T1, hERG (Homo sapiens, UniProt Q12809); test: hERG binding assay ([3H] dofetilide displacement); conditions: dofetilide displacement; read-out: HERGdof IC50
T1 construct: host or cells: crude membrane suspension
T1 sequence (Q12809 whole entry): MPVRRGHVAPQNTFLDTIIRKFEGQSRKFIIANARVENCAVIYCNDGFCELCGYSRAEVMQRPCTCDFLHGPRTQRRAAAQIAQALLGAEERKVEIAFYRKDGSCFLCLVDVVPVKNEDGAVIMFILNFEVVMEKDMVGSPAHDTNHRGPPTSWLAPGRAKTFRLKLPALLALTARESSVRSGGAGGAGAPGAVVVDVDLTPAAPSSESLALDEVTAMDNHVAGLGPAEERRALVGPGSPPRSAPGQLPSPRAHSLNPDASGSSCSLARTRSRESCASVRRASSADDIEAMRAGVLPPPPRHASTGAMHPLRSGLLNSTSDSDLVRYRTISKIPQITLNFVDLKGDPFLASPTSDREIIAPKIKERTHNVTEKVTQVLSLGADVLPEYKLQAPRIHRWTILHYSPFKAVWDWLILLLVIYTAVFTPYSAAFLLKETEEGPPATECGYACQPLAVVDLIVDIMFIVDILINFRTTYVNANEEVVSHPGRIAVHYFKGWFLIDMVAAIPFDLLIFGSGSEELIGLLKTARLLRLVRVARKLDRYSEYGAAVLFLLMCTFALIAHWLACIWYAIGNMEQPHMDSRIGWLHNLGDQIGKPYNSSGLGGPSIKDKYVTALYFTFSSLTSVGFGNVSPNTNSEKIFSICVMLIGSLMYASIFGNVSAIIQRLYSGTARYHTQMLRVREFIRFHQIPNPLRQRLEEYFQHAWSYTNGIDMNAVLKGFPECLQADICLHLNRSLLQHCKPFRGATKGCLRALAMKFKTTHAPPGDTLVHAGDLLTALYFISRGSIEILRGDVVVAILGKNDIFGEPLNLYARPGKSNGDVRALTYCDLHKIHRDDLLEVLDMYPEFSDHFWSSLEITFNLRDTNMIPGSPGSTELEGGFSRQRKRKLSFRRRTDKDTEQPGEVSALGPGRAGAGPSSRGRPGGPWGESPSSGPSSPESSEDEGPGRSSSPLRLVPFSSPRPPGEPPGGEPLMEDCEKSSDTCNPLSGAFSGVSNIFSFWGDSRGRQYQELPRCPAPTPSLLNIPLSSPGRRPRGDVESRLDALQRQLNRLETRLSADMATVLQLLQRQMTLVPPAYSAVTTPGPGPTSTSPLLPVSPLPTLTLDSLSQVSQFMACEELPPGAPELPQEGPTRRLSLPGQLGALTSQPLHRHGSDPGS
Method: Compounds of the invention were pipetted into each well of pre-wet 96-well Millipore GF/C filter plates (#MSFCN6B50): 119 μl assay buffer, 1 μl test compound in 100% DMSO (or 100% DMSO only for total binding), 40 μl [3H] dofetilide (12.5 nM, final concentration 2.5 nM; Novartis radioisotope laboratory, East Hanover, N.J., USA, specific activity 15-45 Ci/mmol); 40 μl crude membrane suspension (ca. 15 μg protein). The final concentration of DMSO during the incubation was 0.5%. Incubations were performed at room temperature for 90 min. Non-specific binding (NSB) was defined as the binding remaining in the presence of 25 μM terfenadine (Sigma T9652). The incubations were terminated by rapid filtration on a Millipore filtration manifold, followed by three washes of 200 μA ice-cold assay buffer. The plates were left to dry overnight before adding 40 μA scintillant (MicroScint-20). The plates were then sealed (Sealing Tape SI, Nunc 236366) and read in a Wallac MicroBeta Trilux beta-counter for 1.5 min per well. Compounds were tested as 9-concentration response curves in duplicate, ranging from 30 μM to 3 nM in 1:3 dilution steps. Dilution curves were prepared in 100% DMSO. The reference compound (terfenadine) was tested as an eight-concentration response curve, ranging from 10 μM to 0.6 nM in 1:4 dilution steps.

Chain of PIM1 (P11309 whole entry): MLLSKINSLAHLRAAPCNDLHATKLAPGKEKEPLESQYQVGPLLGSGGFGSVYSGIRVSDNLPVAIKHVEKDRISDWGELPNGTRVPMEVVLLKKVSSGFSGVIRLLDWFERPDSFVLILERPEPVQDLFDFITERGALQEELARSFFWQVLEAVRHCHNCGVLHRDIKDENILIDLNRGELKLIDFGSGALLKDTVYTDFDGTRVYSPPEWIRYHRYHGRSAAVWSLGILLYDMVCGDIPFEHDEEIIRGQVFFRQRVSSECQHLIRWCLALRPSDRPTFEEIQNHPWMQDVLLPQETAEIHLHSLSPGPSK

| Compound | IC50 (PIM1) [nM] | IC50 (PIM2) [nM] | IC50 (PIM3) [nM] | IC50 (GSK3β) [nM] | EC50 [1] [nM] | IC50 (hERG) [nM] |
| --- | --- | --- | --- | --- | --- | --- |
| CC(C)NC(=O)c1ccc(F)c(-c2ccc(N)c(C(=O)Nc3cnccc3[C@@H]3C[C@@H](O)[C@](C)(O)[C@@H](C)O3)n2)c1F [Example 98, 3-amino-6-(2,6-difluoro-3-(isopropylcarbamoyl)phenyl)-N-(4-((2S,4R,5S,6R)-4,5-dihydroxy-5,6-dimethyltetrahydro-2H-pyran-2-yl)pyridin-3-yl)picolinamide] | 2 | 2 | 3 | 916 | 500 | > 30000 |
| CC(C)NC(=O)c1ccc(F)c(-c2ccc(N)c(C(=O)Nc3cnccc3[C@H]3C[C@@H](O)[C@](C)(O)[C@@H](C)O3)n2)c1 [Example 104, 3-amino-N-(4-((2R,4R,5S,6R)-4,5-dihydroxy-5,6-dimethyltetrahydro-2H-pyran-2-yl)pyridin-3-yl)-6-(2-fluoro-5-(isopropylcarbamoyl)phenyl)picolinamide] | 2 | 3 | 2 | 979 | 2300 | > 30000 |
| C[C@@H]1O[C@H](c2ccncc2NC(=O)c2ccc(F)c(-c3c(F)cccc3F)n2)C[C@H](N)[C@H]1O [Example 115, N-(4-((2S,4S,5R,6S)-4-amino-5-hydroxy-6-methyltetrahydro-2H-pyran-2-yl)pyridin-3-yl)-6-(2,6-difluorophenyl)-5-fluoropicolinamide] | 1 | 5 | 2 | 225 | 1300 | 22000 |
| C[C@@H]1C[C@H](N)C[C@H](c2ccncc2NC(=O)c2ccc(F)c(-c3c(F)cccc3F)n2)O1 [Example 122, N-(4-((2R,4S,6R)-4-amino-6-methyltetrahydro-2H-pyran-2-yl)pyridin-3-yl)-6-(2,6-difluorophenyl)-5-fluoropicolinamide] | 2 | 45 | 10 | 12300 | 4700 | 2000 |
| C[C@H]1C[C@@H](N)C[C@@H](c2ccncc2NC(=O)c2ccc(F)c(-c3c(F)cccc3F)n2)O1 [Example 124, N-(4-((2S,4R,6S)-4-amino-6-methyltetrahydro-2H-pyran-2-yl)pyridin-3-yl)-6-(2,6-difluorophenyl)-5-fluoropicolinamide] | 1 | 5 | 2 | 3400 | 1600 | 3000 |
| O=C(Nc1cnccc1[C@H]1C[C@@H](O)CCO1)c1ccc(F)c(-c2c(F)cccc2F)n1 [Example 129, 6-(2,6-difluorophenyl)-5-fluoro-N-(4-((2R,4S)-4-hydroxytetrahydro-2H-pyran-2-yl)pyridin-3-yl)picolinamide] | 2 | 147 | 13 | 361 | > 10000 | > 30000 |

More lines, main results first:

| IC50 (PIM1) [nM] | IC50 (PIM2) [nM] | IC50 (PIM3) [nM] | IC50 (GSK3β) [nM] | EC50 [1] [nM] | Compound | IC50 (hERG) [nM] |
| --- | --- | --- | --- | --- | --- | --- |
| 9 | 795 | 44 | 3230 | 4700 | C[C@@H]1C[C@H](N)C[C@H](c2ccncc2NC(=O)c2csc(-c3c(F)cccc3F)n2)O1 [Example 121, N-(4-((2R,4S,6R)-4-amino-6-methyltetrahydro-2H-pyran-2-yl)pyridin-3-yl)-2-(2,6-difluorophenyl)thiazole-4-carboxamide] | 10000 |
| 1 | 44 | 7 | 421 | 4200 | C[C@H]1C[C@@H](N)C[C@@H](c2ccncc2NC(=O)c2csc(-c3c(F)cccc3F)n2)O1 [Example 123, N-(4-((2S,4R,6S)-4-amino-6-methyltetrahydro-2H-pyran-2-yl)pyridin-3-yl)-2-(2,6-difluorophenyl)thiazole-4-carboxamide] | 12000 |
